# T1: soybean CYP71A10 (Glycine max, UniProt O48918)
# T1 construct: microsomes of yeast W(R) overexpressing endogenous P450 reductase
# T1 sequence (O48918 1-513): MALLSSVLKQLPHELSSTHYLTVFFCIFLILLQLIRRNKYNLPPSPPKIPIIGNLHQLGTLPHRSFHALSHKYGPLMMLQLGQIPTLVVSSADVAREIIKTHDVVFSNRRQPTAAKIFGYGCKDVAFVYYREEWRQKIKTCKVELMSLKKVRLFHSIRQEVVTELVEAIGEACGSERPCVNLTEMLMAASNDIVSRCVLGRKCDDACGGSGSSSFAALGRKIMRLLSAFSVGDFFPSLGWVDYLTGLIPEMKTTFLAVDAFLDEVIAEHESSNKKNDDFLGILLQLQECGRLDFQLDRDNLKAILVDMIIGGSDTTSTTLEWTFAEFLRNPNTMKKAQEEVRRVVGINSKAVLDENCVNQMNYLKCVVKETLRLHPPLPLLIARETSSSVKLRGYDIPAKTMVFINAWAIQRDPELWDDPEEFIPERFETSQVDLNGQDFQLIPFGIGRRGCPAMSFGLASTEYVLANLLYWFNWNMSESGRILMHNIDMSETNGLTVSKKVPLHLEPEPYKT
# T1 sequence (P16603 1-691 partner): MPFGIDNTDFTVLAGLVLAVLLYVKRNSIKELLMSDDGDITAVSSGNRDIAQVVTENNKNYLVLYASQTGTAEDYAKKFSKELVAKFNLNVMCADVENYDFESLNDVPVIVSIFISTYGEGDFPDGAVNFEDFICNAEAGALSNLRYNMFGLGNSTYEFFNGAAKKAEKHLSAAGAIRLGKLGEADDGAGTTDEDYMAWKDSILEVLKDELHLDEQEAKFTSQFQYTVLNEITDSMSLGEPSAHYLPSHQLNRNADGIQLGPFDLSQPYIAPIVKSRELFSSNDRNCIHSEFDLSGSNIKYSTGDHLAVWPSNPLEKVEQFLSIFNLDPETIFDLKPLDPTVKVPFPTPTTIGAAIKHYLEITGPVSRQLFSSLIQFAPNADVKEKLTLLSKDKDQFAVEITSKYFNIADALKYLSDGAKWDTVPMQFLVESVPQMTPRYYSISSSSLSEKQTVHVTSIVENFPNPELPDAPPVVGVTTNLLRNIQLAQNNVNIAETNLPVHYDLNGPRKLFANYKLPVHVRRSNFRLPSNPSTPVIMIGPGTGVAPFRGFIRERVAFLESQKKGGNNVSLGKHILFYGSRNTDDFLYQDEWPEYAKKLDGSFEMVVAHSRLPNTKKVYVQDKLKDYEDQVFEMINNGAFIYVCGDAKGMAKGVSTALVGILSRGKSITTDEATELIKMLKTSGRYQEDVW
# B1: soybean CYP71A10 (Glycine max) (protein)
# chain: T1 sequence (O48918 1-513)
# notes: microsomes of yeast W(R) overexpressing endogenous P450 reductase
# What was measured:
# soybean CYP71A10 = molecular target: T1, soybean CYP71A10; assay: In vitro herbicide metabolism assay and enzyme kinetics, microsomes of yeast expressing CYP71A10; format: biochemical; conditions: for metabolites formed from the radiolabeled herbicide (TLC): 45 minutes at 27° C., 0.75 mM NADPH, 2.5 mg/ml microsomal protein
# Experimental: Yeast transformation was performed as described by Geitz et al., Nucleic Acids Research 20:1425 (1992). Media composition, culturing conditions, galactose induction, and microsomal preparations were conducted according to Pompon et al., Methods Enzymol. 272:51-64 (1995), using a culture volume of 250 ml. Microsomal protein was quantified spectrophotometrically using the method of Waddell, J. Lab. Clin. Med. 48:311-314 (1956), using bovine albumin as a standard. Dithionite-reduced, carbon monoxide difference spectra was obtained as previously outlined (Estabrook and Werringloer, Methods Ennzmol. 52:212-220 (1978)) using a Shimadzu Recording Spectrophotometer UV-240 (Shimadzu, Kyoto, Japan). P-450 protein concentrations of yeast microsomes were calculated using a millimolar extinction coefficient of 91 (Omura and Sato, J. Biol. Chem., 239:2370-2378 (1964)).
# Yeast microsomes enriched for a discrete soybean P-450 isozyme were assayed for their capacity to metabolize the ten herbicides and one insecticide listed in Table 3. The reaction mixtures contained 10,000 DPM (100-200 ng) radiolabeled substrate, 0.75 mM NAPDH, 2.5 mg/ml microsomal protein. Total reaction volumes were adjusted to 150 μl with 50 mM phosphate buffer (pH 7.1). The mixtures were incubated under light for 45 minutes at 27° C., arrested with 50 μl acetone and centriftiged at 14 000×g for 2 minutes. […] Radiolabeled bentazon and imazaquin-containing samples were spotted onto 200 micron Whatman LKC18F silica gel reversed-phase plates. All plates were developed in a benzene/acetone 2:1 (v/v) solvent system with the exception of prosulfaron, developed in toluene/acetone/acetic acid, 75:20:5 (v/v/v), and bentazon and imazaquin, developed in methanol/75 mM sodium acetate 40:60 (v/v). The developed plates were scanned with a Bioscan System 400 imaging scanner (Bioscan, Washington, D.C.), and the production of metabolites was determined based on the chromatographic profiles. For microsomes containing the expressed CYP71A10 enzyme, control experiments were also conducted to measure the NADPH-dependency, and the inhibitory effects of CO. CO treatment of the sample was achieved by gentle bubbling of the gas through the reaction mixture for 2 minutes immediately before the assay was initiated by the addition of NADPH.
# Substrate conversion was quantified by a combination of TLC analysis and scintillation spectrometry. The location of the metabolic products on the TLC plates was identified using an imaging scanner, the bands were scraped and analyzed by scintillation spectrometry. The amount of metabolite produced was calculated based on specific activity and scintillation counts. Each assay was repeated at least twice. Km and Vmax values were estimated using nonlinear regression analysis.
# [1] = system: excised leaves of transgenic tobacco plant 25/2 progeny (CYP71A10-transformed); assay: In vivo herbicide metabolism assay, excised leaves of CYP71A10-transformed tobacco; parameters: species or system Nicotiana tabacum cv SR1; conditions: for % of herbicide metabolized, CYP71A10-transformed: after 14 hours, 1.2 nmol herbicide, standard error in parentheses, four 25/2 plants; for share of the chlortoluron metabolites recovered from CYP71A10-transformed leaves: 14 hours, TLC
# Experimental: (§1) Seeds from primary transgenic tobacco plants transformed with CYP71A10 and control plants transformed with the pBI121 vector were grown in Petri dishes containing MS salts and 100 μg/ml kanamycin. At five weeks post-seeding, kanamycin-resistant plantlets were transplanted into pots containing soil and grown an additional two weeks. Single leaves of approximately 10 cm^2 in size were excised and their petioles inserted into 100 μl of H2 O containing radiolabeled herbicide. The leaves were placed in a growth chamber maintaining a temperature of 27° C. and incubated until the entire volume of the herbicide solution was drawn up by the transpirational stream of the leaves (about 3 hrs). The leaves were subsequently transferred into an Eppendorf tube containing distilled water and further incubated for a total of 14 hours.
# (§2) [^14 C]-labeled herbicide was extracted from the leaves by grinding for 5 minutes in 250 μl methanol with a plastic pellet pestle driven by an electric drill. After centrifugation for 3 minutes at 14,000 g, 75μl of the supernatant was spotted on a Whatman K6F silica plate and developed in a solvent system containing chloroforn/ethanol/acetic acid 135:10:15 (v/v/v). The separated herbicide derivatives were visualized using an imaging scanner. Substrate conversion was quantified based on the amount of herbicide absorbed, and the ratios of the parent compound and the produced metabolites determined from the TLC profiles.
# [2] = system: excised leaves of control tobacco plants transformed with pBI121; assay: In vivo herbicide metabolism assay, excised leaves of control tobacco; parameters: species or system Nicotiana tabacum cv SR1; conditions: for % of herbicide metabolized, Control: after 14 hours, 1.2 nmol herbicide, standard error in parentheses, three pBI121 control plants; for share of the chlortoluron metabolites produced in control leaves: 14 hours, TLC
# Experimental: as §1, §2
# [3] = system: CYP71A10-transformed tobacco; assay: Herbicide tolerance, seeds germinated on herbicide medium, CYP71A10-transformed tobacco; format: in vivo, Nicotiana tabacum cv SR1; conditions: for tolerance of line 25/2 to the herbicide: compared with control plants, data not shown
# Experimental: (§3) T1 generation seeds from CYP71A10-transformed tobacco and pBI121-transformed control plants were placed onto Petri dishes containing MS salts and linuron (using its commercial formulation LOROX 50 DF) at active ingredient concentrations ranging from 0.25 to 3.0 μM. Chlortoluron was added at 0, 1.0, 5.0 and 10.0 μM concentrations using a 99.5% pure analytical standard. The Petri dishes were incubated in a growth chamber maintaining a constant temperature of 27° C. and a 16/8 hour light/dark cycle. The phytotoxic effects of the treatments were determined visually by comparison to control plants and plants grown in the absence of the herbicide. All treatments were repeated at least twice.
# [4] = system: wild-type SR1 plants and pBI121-transformed control tobacco plants; assay: Herbicide tolerance, seeds germinated on herbicide medium, control tobacco; format: in vivo, Nicotiana tabacum cv SR1; conditions: data not shown
# Experimental: as §3
# Hill-reaction = conditions: cited from earlier work
# [5] = substrate: CN(C)C(=O)Nc1ccc(Cl)c(Cl)c1; assay: cells, lysate or membranes named; conditions: other: yeast microsomes containing CYP71A10; standard error in parentheses; nonlinear regression; pH 7.1; 27.0 °C
# [6] = substrate: CN(C)C(=O)Nc1cccc(C(F)(F)F)c1; assay: In vitro herbicide metabolism assay and enzyme kinetics, microsomes of yeast expressing CYP71A10; format: biochemical, soybean (Glycine max); conditions: other: yeast microsomes containing CYP71A10; standard error in parentheses; nonlinear regression; pH 7.1; 27.0 °C
# [7] = substrate: Cc1ccc(NC(=O)N(C)C)cc1Cl; assay: as above; format: biochemical, soybean (Glycine max); conditions: other: yeast microsomes containing CYP71A10; standard error in parentheses; nonlinear regression; pH 7.1; 27.0 °C
# [8] = substrate: CON(C)C(=O)Nc1ccc(Cl)c(Cl)c1; assay: as above; format: biochemical, soybean (Glycine max); conditions: other: yeast microsomes containing CYP71A10; standard error in parentheses; nonlinear regression; pH 7.1; 27.0 °C
# [9] = yeast microsomes containing CYP71A10, standard error in parentheses
molecule,measurement,setting,value
"[C-]#[O+] [CO, carbon monoxide]",reduction of linuron metabolizing activity,"soybean CYP71A10; linuron as substrate (3.2 μM), CO bubbled through reaction mixture for 2 minutes",approximately 37%
"CN(C)C(=O)Nc1ccc(Cl)c(Cl)c1 [Diuron, diuron]",metabolites formed from the radiolabeled herbicide (TLC),soybean CYP71A10,a single metabolite
same,Turnover,soybean CYP71A10; [9],0.4 (0.04) min^-1
same,Vmax,soybean CYP71A10; [9],16.8 (1.6) pmol min^-1 mg^-1 protein
same,"% of herbicide metabolized, CYP71A10-transformed",[1],49 (7.0) %
same,"% of herbicide metabolized, Control",[2],20 (2.0) %
same,tolerance of line 25/2 to the herbicide,[3],little tolerance
"CN(C)C(=O)Nc1cccc(C(F)(F)F)c1 [Fluometuron, fluometuron]",metabolites formed from the radiolabeled herbicide (TLC),soybean CYP71A10,a single metabolite
same,Turnover,soybean CYP71A10; [9],6.8 (0.24) min^-1
same,"% of herbicide metabolized, CYP71A10-transformed",[1],91 (4.5) %
same,"% of herbicide metabolized, Control",[2],15 (0.6) %
same,tolerance of line 25/2 to the herbicide,[3],little tolerance
"CON(C)C(=O)Nc1ccc(Cl)c(Cl)c1 [Linuron, linuron]",growth of wild-type SR1 and pBI121 control plants,[4]; 0.25 μM linuron (LOROX 50 DF) in medium,severely inhibited
same,growth of wild-type SR1 and pBI121 control plants,[4]; linuron 0.5 μM and higher in medium,completely arrested
same,inhibition of the Hill-reaction relative to N-demethyl linuron,Hill-reaction,10 fold
same,metabolites formed from the radiolabeled herbicide (TLC),soybean CYP71A10,two (a major and a minor) metabolites
same,linuron metabolizing activity with microsomes of yeast expressing only the V60 control plasmid,"soybean CYP71A10; V-60 control microsomes, no CYP71A10",no activity is detected
same,linuron metabolites when NADPH is omitted from the reaction,soybean CYP71A10; no NADPH,no metabolites are observed
same,Turnover,soybean CYP71A10; [9],2.8 (0.27) min^-1
same,"% of herbicide metabolized, CYP71A10-transformed",[1],87 (2.0) %
same,"% of herbicide metabolized, Control",[2],12 (2.6) %
same,germinated seedlings of plant 25/2 inhibited by the herbicide,[3]; 0.5 μM linuron in medium,one of 23
same,number of 20 other independent CYP71A10-expressing lines giving linuron tolerant progeny,[3]; 0.5 μM linuron in medium,19 lines
same,linuron level to which tolerant 25/2 plants were observed,[3]; increasing percentage of plants inhibited with rising concentration,≤ 2.5 µM
CNC(=O)Nc1ccc(C)c(Cl)c1 [N-demethyl chlortoluron],share of the chlortoluron metabolites recovered from CYP71A10-transformed leaves,[1],8%
same,share of the chlortoluron metabolites produced in control leaves,[2],Sixty three
same,share of the chlortoluron metabolites produced in control leaves,[2]; listed as Ndemethyl chlortoluron,63%
CN(C)C(=O)Nc1ccc(CO)c(Cl)c1 [ring-methyl hydroxy chlortoluron],share of the chlortoluron metabolites recovered from CYP71A10-transformed leaves,[1],47%
Clc1ccc(N2N=NC3C4CC(C5N=NC45)C32)cc1 (centres unmarked) [tetcyclasis],effect on linuron metabolizing activity,soybean CYP71A10,completely abolished
B1,Km,[5],1.5 µM
same,Km,[6],14.9 µM
same,Km,[7],1 µM
same,Vmax,[7],29.4 (2.2) pmol min^-1 mg^-1 protein
same,Km,[8],9.8 µM
same,Vmax,[8],125.6 (12.0) pmol min^-1 mg^-1 protein
